Measurements taken from US8257734B2, “PQS and its conjugates as adjuvants and their uses in pharmaceutical compositions” (Helmhotlz-Zentrum Fuer Infektions-Forschung GmbH, priority 2005, dated 2012).
Entries after “also recorded” stand apart in the source; their conditions may differ.

Experiments:
[1] = tested on: β-gal-specific IgA; test: β-gal-specific IgA in lung and vaginal lavages after i.n. immunization; format: in vivo, BALB/c (H-2d) mice; settings: day 38, vs β-gal alone
Procedure: Experimental protocol: at day 38, mice were sacrificed and the final sampling was performed. Vaginal and lung lavages were obtained by flushing the organs with 1 ml of PBS supplemented with 50 mM EDTA, 0.1% BSA, and 10 mM PMSF. Lavages were then centrifuged to remove debris (10 min at 3000×g), and supernatant fluids were stored at −20° C. To determine the concentration of total IgA present in the lung and vaginal lavages, serial dilutions of the corresponding samples were incubated in microtiter plates that were previously coated with goat anti-mouse IgA (Sigma Chemie), as capture antibodies (100 μl/well). Serial dilutions of purified mouse IgA (Sigma Chemie) were used to generate a standard curve.

[2] = tested on: spleenocytes stimulated with ConA; settings: cited from earlier work
[3] = tested on: β-gal antigen-specific IgG1; test: Isotyp ELISA of β-gal-specific IgG subclasses in sera of vaccinated mice; format: in vivo
Procedure: Isotyp ELISA: 96-well Nunc-Immuno MaxiSorp assay plates (Nunc, Roskilde, Denmark) were coated with 100 μl of β-gal (Boehringer, Mannheim, Germany) at 5 μg/ml in 0.05 M carbonate buffer (pH 9.6) per well. Serial two-fold dilutions of sera or lavages in PBS with 1% BSA and 0.05% Tween 20 were added (100 μl/well), and plates incubated for 2 h at 37° C. After washing, biotin-conjugated rat anti-mouse IgG1 or IgG2a (Pharmingen, Hamburg, Germany) were added to determine IgG subclasses. Plates were incubated for an additional 1 h at 37° C. After four washes, 100 μl of peroxidase-conjugated streptavidin (Pharmingen) was added to cells and plates incubated at 37° C. for 30 min. […] To determine the concentration of IgG subclasses in serum, standard curves were obtained by coating the wells with an isotype-specific goat anti-mouse IgG, and then by incubating with purified mouse IgG1 or IgG2 antibodies (Dianova, Hamburg, Germany).

[4] = tested on: P815 target cells; test: Cr51 release cytotoxicity assay with effector cells of immunized mice; format: in vivo; settings: mice immunized with β-gal/PQS subcutaneously; FIG. 8A; vs non-immunized mice
Procedure: This system is based on the measurement of the Cr51 release of target cells due to specific lysis. In particular, with the amount of radioactivity detectable in the supernatant, the specific lysis can be calculated.
Prior the Cytotoxicity Assay, P815 target cells were split and resuspended and adjusted to 2×10E6 cells/300 μl DMEM. The P815 cells were incubated with an MHC class I β-gal specific peptide for 1.5 h, while slightly agitating the cells every 15 min to improve binding between the peptide and the MHC class I molecule. After washing the cells, cells were resuspended in 150 μl medium without FCS and cultured for 2 h in the presence of 100 μci 51Chrom. Every 30 min, the cell suspension was agitated slightly. Subsequently, cells were washed twice in DMEM plus 10% FCS to remove unbound 51Cr. The cells were adjusted to […]. The effector cells were diluted serially (1×10E6, 0.5×10E6, 0.25×10E6, and 0.125×10E6). 50 μl of the murine target cells (10000 cells) were added to the effector cells, thus, the ratio of effector cells/target cells is 100:1, 50:1, 25:1, and 12.5:1, respectively. […] 25 or 30 μl, supernatant was taken from each of the wells and radioactivity according to standard practice determined. The specific lysis was calculated taking spontaneous lysis and maximal lysis into account.

[5] = tested on: IFN-γ, IL-2, IL-4, IL-5, and TNFα; test: Cytometric Bead Array of cytokines in supernatants of in vitro re-stimulated spleen cells; format: in vivo, mice; settings: vs β-Gal without additional adjuvant
Procedure: Experimental protocol: Spleens from vaccinated mice were removed and pooled for analysis of cellular immune responses. The protocol for vaccination was identical to the protocol described in Example 2. Cells were grown in RPMI 1640 supplemented with 10% fetal calf serum, 100 U/ml of penicillin, 50 μg/ml of streptomycin, 5×10^−5 M 2-mercaptoethanol and 1 mM L-glutamine (GIBCO BRL, Karlsruhe, Germany) and maintained at 37° C. in a humidified 5% CO2 atmosphere. Spleen cell suspensions were adjusted to 5×10^6 cells/ml in complete medium, cells were seeded with 100 μl per well in a flat-bottomed 96-well microtiter plate (Nunc) and plates were incubated for 4 days in the presence of different concentrations of soluble β-gal.
To characterize the type of Th response stimulated following immunization, the content of IFN-γ, IL-2, IL-4, IL-5, and TNFα was measured in supernatants from in vitro re-stimulated spleen cells (FIG. 6A for s.c. immunization and FIG. 6B for i.n. immunization) by the Cytometric Bead Array. Culture supernatants from proliferating cells were collected on days 2 and 4, and stored at −70° C. […] The probes were analyzed subsequently by flow cytometry as described in the protocol of BD.

[6] = tested on: β-gal-specific IgG; test: β-gal-specific serum IgG ELISA after immunization with β-gal plus adjuvant; format: in vivo, BALB/c (H-2d) mice; settings: 30 μg β-gal + 10 μg adjuvant, vs β-gal alone
Procedure: Experimental protocol: six-eight weeks-old female BALB/c (H-2d) mice were purchased from Harlan Winkelmann GmbH (Borchen, Germany) and treated in accordance with local and European Community guidelines. Groups of 5 mice each were immunized on day 1, 14 and 28 with 30 μg of β-gal (Boehringer, Mannheim, Germany), alone or as an admixture with 10 μg PQS-PEG or with 10 μg PQS (structure of said compounds are shown in FIG. 1). For intranasal (i.n.) immunization, 10 μl were applied to each naris, whereas for the s.c. injection β-gal with or without c-PQS-PEG or PQS, respectively, was resuspended in a volume of 20 μl PBS per animal. Serum samples were collected at day 38 after immunization and stored at −20° C. prior to determination of β-gal-specific antibodies. 96-well Nunc-Immuno MaxiSorp assay plates (Nunc, Roskilde, Denmark) were coated with 100 μl of β-gal (Boehringer, Mannheim, Germany) at 5 μg/ml in 0.05 M carbonate buffer (pH 8.2) per well. Serial two-fold dilutions of sera in PBS with 1% BSA and 0.05% Tween 20 were added (100 μl/well), and plates incubated for 16 h at 37° C. After washing, biotinylated γ-chain-specific goat anti-mouse IgG (Sigma Chemie, Deisenhofen, Germany) was added, and plates were incubated for an additional 1 h at 37° C. After four washes, 100 μl of peroxidase-conjugated streptavidin (Pharmingen) was added to cells and plates incubated at 37° C. for 30 min.

[7] = tested on: IL-2; settings: cited from earlier work
[8] = tested on: human peripheral blood mononuclear cells; settings: stimulated with the lectin ConA; cited from earlier work
[9] = tested on: splenic IFNγ, IL-2 and IL-4 producing cells; test: ELISPOT of cytokine producing spleen cells from vaccinated mice; format: in vivo; settings: for splenic IL-2 producing cells / splenic IL-4 producing cells: restimulation with β-Gal protein
Procedure: Experimental protocol: Spleens from vaccinated mice were removed and pooled for analysis of cellular immune responses. […] Spleen cell suspensions were adjusted to 5×10^6 cells/ml in complete medium, cells were seeded with 100 μl per well in a flat-bottomed 96-well microtiter plate (Nunc) and plates were incubated for 4 days in the presence of different concentrations of soluble β-gal.
For coating ELISPOT plates, said plates were incubated with 100 μl/well of purified capture antibody (10 μg/ml in coating buffer) at 4° C. overnight. […] The activated cells were seeded at 100 μl per well and incubate at 37° C., in a 5% CO2 humidified incubator for 24 hours or 48 h hours. After 5× washing steps with washing buffer and 1× step with distilled water, 100 μl/well of the biotinylated detection antibody with a concentration of 1 μg/ml in Assay Diluent was added and incubated at room temperature for 2 hrs. After further washing steps 100 μl/well of the AV-HRP at 1/1000 dilution in Assay Diluent was added and incubated at room temperature for 30 minutes. After further washing steps 100 μl/well of AEC Substrate Solution was added and developed at room temperature for 10-60 minutes until visible spots appeared. After washing steps with (3×) with 200 μl/well distilled water, the plates were air-dried and analyzed by counting the spots by an ELISPOT reader. Each concentration was tested in triplicates.

[10] = tested on: TNF-alpha; settings: cited from earlier work
[11] = tested on: spleen cells; test: [3H]thymidine proliferation of spleen cells from vaccinated mice restimulated in vitro with β-gal; format: in vivo, BALB/c (H-2d) mice; settings: day 38, vs β-gal alone
Procedure: Experimental protocol: Spleens were removed and pooled for analysis of cellular immune responses. […] Spleen cell suspensions were adjusted to 5×10^6 cells/ml in complete medium, cells were seeded with 100 μl per well in a flat-bottomed 96-well microtiter plate (Nunc) and plates were incubated for 4 days in the presence of different concentrations of soluble β-gal. That is, T cell mediated immune responses were investigated at day 38 by measuring the proliferation after in vitro restimulation with β-Gal of cells which have been recovered from spleens before. […] Each concentration was tested in quadruplicate. During the final 18 h of culture, 1 μCi of [3H]thymidine (Amersham International, Freiburg, Germany) was added to each well. […] The results are expressed as the arithmetic mean of [^3H]thymidine uptake in cpm.
Thirty eight days following vaccination, spleens cells were purified, re-stimulated in vitro in the presence of various amounts of β-galactosidase and their proliferative capacity was estimated by measuring the incorporation of [3H]thymidine into their DNA using a β-scintillation counter.

## CCCCCCCC1=Nc2ccccc2C(=O)C1O (centres unmarked) [PQS, 2-heptyl-3-hydroxy-4-quinolone]
[1]
  β-gal-specific IgA in lung lavage: slight increase
  β-gal-specific IgA in vaginal lavage: slight increase
[2]
  proliferation of spleenocytes: inhibiting activity
[3]; i.n. immunization
  antigen-specific antibody response: strong antigen-specific antibody response
[3]; intranasal administration, FIG. 5B
  antigen specific antibodies of the IgG1 subtype in sera: strongly increased
[3]; subcutaneous administration, FIG. 5A
  expression of the IgG1 isotype in sera: strongly increased
[4]
  specific lysis of peptide-pulsed target cells by β-gal restimulated CD8+ T-cells: demonstrates the cytotoxic capacity
[5]; i.n. route
  levels of IL-5: significantly higher
[5]; s.c. route
  levels of IL-5: significantly higher
[6]; i.n. immunization day 1, 14, 28, sera day 38
  β-gal specific IgG titer in sera: increased expression; also recorded: remarkably increased
[6]; s.c. (parenteral) immunization day 1, 14, 28
  β-gal specific IgG titer in sera: remarkably increased
[7]; at low doses, stimulated with ConA
  IL-2 release from PMCs: no effect
[7]
  IL-2 secretion: inhibited
[8]
  proliferation of human peripheral blood mononuclear cells: proliferation inhibiting activity
[9]; i.n. route
  splenic IL-2 producing cells: strong expression
  splenic IL-4 producing cells: strong expression
[9]; i.n. vaccination, compared with s.c. vaccination
  amounts of IFNγ expressing cells: lower to the level determined after s.c. vaccination
[9]; intranasal immunization (FIG. 7B)
  expression of Th1 and Th2 cytokines after restimulation of spleen cells: increased expression
[9]; parenteral (s.c.) vaccination, restimulation with MHC class I-restricted β-Gal peptide (CD8 epitope), FIG. 7A
  number of splenic IFNγ producing cells: increment
[9]; s.c. route
  splenic IL-2 producing cells: strong expression
  splenic IL-4 producing cells: strong expression
[9]; subcutaneous immunization (FIG. 7A)
  expression of Th1 and Th2 cytokines after restimulation of spleen cells: increased expression
[10]; at high concentrations
  TNF-alpha production: enhances
[10]; at low doses, stimulated with LPS
  TNF-alpha release from PMCs: no effect
[11]; i.n. immunization
  spleen cell proliferation ([3H]thymidine uptake) after β-gal restimulation: efficient adjuvant; also recorded: efficient proliferative response at low amounts of antigen; also recorded: statistically significant increment
[11]; s.c. immunization
  spleen cell proliferation ([3H]thymidine uptake) after β-gal restimulation: efficient adjuvant; also recorded: further increase in proliferation; also recorded: statistically significant increment
